Measurements as given in ChEMBL document CHEMBL1150915, “Dehydroradiosumin, a trypsin inhibitor from the cyanobacterium Anabaena cylindrica” (J Nat Prod, 1998).
In brackets after ≈: the same amount, converted by molar mass. Activity calls are given as the source filed them. The rule behind the calls is not given here.

Tests used:
[1] = biological target: Prothrombin (Homo sapiens) (UniProt P00734); assay: Inhibition of thrombin at 100 ug/mL
[2] = Inhibition of trypsin
[3] = Inhibition of elastase at 100 ug/mL
Papain (Carica papaya) = biological target: T1, Papain (Carica papaya) (UniProt P00784); assay: Inhibition of Carica papaya papain at 100 ug/mL
T1 sequence (whole entry): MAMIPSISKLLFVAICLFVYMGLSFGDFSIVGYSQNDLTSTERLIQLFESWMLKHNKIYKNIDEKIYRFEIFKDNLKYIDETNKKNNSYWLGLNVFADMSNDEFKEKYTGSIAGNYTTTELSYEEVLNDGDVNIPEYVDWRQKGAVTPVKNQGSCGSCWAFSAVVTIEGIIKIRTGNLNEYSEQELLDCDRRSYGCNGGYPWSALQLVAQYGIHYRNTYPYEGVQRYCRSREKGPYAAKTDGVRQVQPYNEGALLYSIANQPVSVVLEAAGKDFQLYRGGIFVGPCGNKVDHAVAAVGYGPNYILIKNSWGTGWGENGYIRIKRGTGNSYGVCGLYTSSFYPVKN

Plasminogen = Plasminogen (Homo sapiens, UniProt P00747); assay: Inhibition of plasmin
[4] = Inhibition of chymotrypsin at 100 ug/mL

Chain of Plasminogen (P00747 97-580 limits assumed): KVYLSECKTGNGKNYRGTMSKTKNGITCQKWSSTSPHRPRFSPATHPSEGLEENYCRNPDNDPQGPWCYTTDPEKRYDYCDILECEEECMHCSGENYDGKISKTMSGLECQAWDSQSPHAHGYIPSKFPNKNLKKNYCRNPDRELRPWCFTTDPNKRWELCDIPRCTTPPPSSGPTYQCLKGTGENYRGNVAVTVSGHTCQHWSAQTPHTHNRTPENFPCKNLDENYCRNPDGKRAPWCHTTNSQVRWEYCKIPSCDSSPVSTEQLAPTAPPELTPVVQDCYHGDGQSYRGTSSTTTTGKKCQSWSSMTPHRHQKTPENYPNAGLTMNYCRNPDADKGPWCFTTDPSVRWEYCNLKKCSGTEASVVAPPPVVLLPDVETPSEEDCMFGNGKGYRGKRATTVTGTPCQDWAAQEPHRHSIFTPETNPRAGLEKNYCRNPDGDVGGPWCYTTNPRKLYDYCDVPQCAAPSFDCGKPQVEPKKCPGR
Chain of Plasminogen (P00747 581-810 limits assumed): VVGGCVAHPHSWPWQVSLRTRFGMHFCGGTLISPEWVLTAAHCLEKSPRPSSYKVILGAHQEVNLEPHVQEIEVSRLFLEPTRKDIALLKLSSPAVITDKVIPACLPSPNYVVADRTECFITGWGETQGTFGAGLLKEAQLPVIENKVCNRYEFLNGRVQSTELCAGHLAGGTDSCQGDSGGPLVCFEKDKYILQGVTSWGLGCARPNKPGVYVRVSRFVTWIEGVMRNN

Q: For `CC(=O)N[C@@H](/C=C1/C=C[C@H](N)CC1)C(=O)N[C@@H](/C=C1/C=C[C@H](NC(C)=O)CC1)C(=O)O` [DEHYDRORADIOSUMIN], which Activity [1] is on record?
A: Its Activity is “inactive”.

Q: And the IC50 [2]?
A: The IC50 was 0.1 µg/mL (≈ 0.232 µM).

Q: What about the Activity [3] of the same compound?
A: Its Activity is “inactive”.

Q: What about the Activity (Papain (Carica papaya)) of the same compound?
A: The Activity was “inactive”.

Q: What about the IC50 (Plasminogen) of the same compound?
A: Its IC50 is 209 µM.

Q: And the Activity [4]?
A: The Activity was “inactive”.
